From patent publication US10456434B2, “Extracts obtained from cell line cultures from plants belonging to the Oleaceae family (e.g. Syringa vulgaris), their preparation and use” (CRODA ITALIANA S. P. A., priority 2005, dated 2019)
Converted amounts (≈) assume the structure as drawn.

Assays:
[1] = biological target: T1, 5 alpha reductase type II (Homo sapiens, UniProt P31213); experiment: Type II 5 alpha reductase inhibition (14C testosterone conversion); format: biochemical; settings: pH 5.0
T1 construct: made in house; host or cells: genetically modified yeast
T1 sequence (P31213 1-254): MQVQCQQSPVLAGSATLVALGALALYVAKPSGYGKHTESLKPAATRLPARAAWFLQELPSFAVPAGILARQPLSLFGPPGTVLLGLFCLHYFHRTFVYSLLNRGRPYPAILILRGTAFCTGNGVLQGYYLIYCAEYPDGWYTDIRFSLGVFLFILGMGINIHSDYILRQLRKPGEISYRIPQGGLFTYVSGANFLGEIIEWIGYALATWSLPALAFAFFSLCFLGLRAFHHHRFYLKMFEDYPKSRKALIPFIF
Text: (§1) Determination of the 5 alpha reductase inhibitory activities by Syringa vulgaris extracts, verbascoside and isoverbascoside in comparison to Serenoa repens extracts. Said determination, has been performed using enzymes (5 alpha reductase, type I and type II) produced by genetically modified yeast. Enzyme activities have been determined in the presence of Syringa vulgaris and Serenoa repens extracts, verbascoside isoverbascoside.
Determination of the type II 5 alpha reductase activity has been performed in an analogous manner to that just described, with the exception of a different pH value for the 0.1 M Tris-citrate buffer (pH 5.0).
(§2) In both assays, the steroids have been extracted using 5 ml of methylene chloride. The extracts have then been dried under a stream of nitrogen and the dried residues obtained have, been dissolved in 20 μl of a chloroform-methanol mixture (2:1 v/v). An aliquot of said mixture has been deposited on the surface of a silica gel TLC plate. […] For quantification of the results, the spots have been scraped from the TLC plate and extracted with 2 ml of ethyl acetate. The extracts obtained have been analysed, using scintillation fluid, with the aid of a Wallach […]. The enzyme activity has been calculated from the percentage conversion (C %) of the substrate into final product:
(§3) C %=[counted product/(counted substrate+product)]×100.

whole blood = experiment: Whole blood luminol dependent chemiluminescence; format: cell-based; settings: 0.5 h; fresh human blood, 30 minutes, 37° C.; read-out: Whole blood chemiluminescence (IC 50 mg/ml)
Experimental: Anti-inflammatory activity has been assessed by measuring luminol dependent chemiluminescence generated by free radicals released from whole blood and from white blood cells. The assay has been performed using the following protocol: 10 μl of fresh human blood is mixed with 0.980 ml of Hanks saline solution containing 5×10^−5 M luminol and the test sample (at various concentrations). The chemiluminescent response is recorded continuously for 30 minutes at a temperature of 37° C. The results are expressed as IC50 (mg/ml), i.e. as the minimum sample, concentration inhibiting chemiluminescence by 50% with respect to the control. To isolate white blood cells (WBC) from whole blood one proceeds in the following manner: 1 ml of fresh blood is layered onto a Hipaque gradient (p=1.119) and centrifuged at 250×g for 60 minutes at room temperature. Following centrifugation, the pellet containing the white blood cells is washed twice, using a large volume of cold Hanks saline solution. Finally, the washed WBCs are resuspended in 01 ml di HBSS containing foetal calf serum. 10^6 WBC are added to a chemiluminometer cuvette. 10 μl of PMA (final concentration equal to 10 nM) are added to induce the formation of free radicals. The chemiluminescent response is recorded continuously for 30 minutes at a temperature of 37° C. […]

[2] = test system: Trycophyton rubrum ATCC 28188; experiment: Multiple dilution antimycotic assay, Trycophyton rubrum; format: cell-based; settings: assayed at 0.625-5 mg/ml
Experimental: With the aim of identifying any potential antifungal activity in the Syringa vulgaris extracts, microbiological assays have been prepared, generally known as multiple dilution assays. Such assays have been performed using the following fungal strains: Trycophyton rubrum ATCC 28188 and Malassezia furfur ST 8036. Syringa vulgaris Extracts 1 and 2, verbascoside and isoverbascoside have been assayed at concentrations of […], 1.25 mg/ml, 2.5 mg/ml and 5 mg/ml. The fungal strains used for testing have been inoculated into culture-broth (in Tryptone soy broth medium, for Malassezia furfur the culture medium has been supplemented with 2 ml/100 ml of olive oil) containing Syringa vulgaris extracts 1 and 2, verbascoside and isoverbascoside at the concentrations described above. In parallel with these tests, culture broths containing the microbial strain alone have been prepared (controls). The culture-broths have, been incubated at 30° C. for a period of 28 days. Samples of the various culture-broths have been taken at 0, 7, 14, 21 and 28 days, with the aim of counting the number of CFU/ml in relation to the various fungal strains, by plating the cultures on solid medium. A certain number of serial dilutions have been prepared for each sample in order to determine the fungal load of each culture-broth. Each dilution has been assayed in triplicate on solid medium. […]

5 alpha reductase type I = biological target: T2, 5 alpha reductase type I (Homo sapiens, UniProt P18405); experiment: Type I 5 alpha reductase inhibition (14C testosterone conversion); format: biochemical; settings: pH 7.0
T2 construct: made in house; host or cells: genetically modified yeast
T2 sequence (P18405 1-259): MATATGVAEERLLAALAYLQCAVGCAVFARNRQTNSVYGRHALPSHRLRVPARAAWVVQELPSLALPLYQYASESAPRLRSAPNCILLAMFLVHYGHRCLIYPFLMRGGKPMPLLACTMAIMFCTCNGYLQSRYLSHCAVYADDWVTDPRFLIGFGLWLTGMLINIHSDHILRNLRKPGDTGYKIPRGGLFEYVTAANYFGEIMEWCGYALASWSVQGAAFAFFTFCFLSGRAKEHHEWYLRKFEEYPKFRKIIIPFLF
Experimental: as §1
Type I 5 alpha reductase activity has been assayed by incubating the enzyme in 0.1M Tris-citrate buffer (pH 7.0), containing 5 μM (^14C) radio-labelled testosterone (Amersham, Sweden) and 5 mM NADPH (Sigma) in a final volume of 5 ml. The solution thus obtained has been incubated for 1 hour at 37° C.
as §2, with “v/v).” for “v/v). An aliquot of said mixture has been deposited on the surface of a silica gel TLC plate.”
as §3

Row | IC50 [1] | IC50 (whole blood) | IC50 (5 alpha reductase type I) | SMILES | antimycotic activity towards Trycophyton rubrum (in words) [2]
1 | 32 µM | 1.3 mg/mL (≈ 2080 µM) | 19.2 µM | CC1OC(OC2C(O)C(COC(=O)C=Cc3ccc(O)c(O)c3)OC(OCCc3ccc(O)c(O)c3)C2O)C(O)C(O)C1O [Isoverbascoside, b-(3,4-dihydroxyphenyl)-ethyl-O-α-L-ramnopyranosyl(1″-3′)-b-D-(6′-O-caffeoil)glucopyranoside] | activity comparable to Extract 1
2 | 33.6 µM | 1.29 mg/mL (≈ 2070 µM) | 20.8 µM | C[C@@H]1O[C@@H](O[C@@H]2[C@@H](O)[C@H](OCCc3ccc(O)c(O)c3)O[C@H](CO)[C@H]2OC(=O)/C=C/c2ccc(O)c(O)c2)[C@H](O)[C@H](O)[C@H]1O [Verbascoside, b-(3,4-dihydroxyphenyl)-ethyl-O-α-L-ramnopyranosyl (1″-3′)-b-D-(4′-O-caffeoil)-glucopyranoside] | activity comparable to Extract 1
